Measured values taken from ChEMBL document CHEMBL5055649, “Synthesis and biological evaluation of 3,5-substituted pyrazoles as possible antibacterial agents” (Bioorg Med Chem, 2021).
Converted amounts (≈) assume the structure as drawn. The source made the active and inactive calls. No cut-off for these calls is given here.

How the values were obtained:
Bacillus subtilis [1] = experiment: Bacteriostatic activity against Bacillus subtilis 168 assessed as reduction in bacterial growth measured after 20 hrs by CLSI protocol based broth microdilution method; format: functional, organism-based
Staphylococcus aureus [2] = experiment: Bacteriostatic activity against Staphylococcus aureus ATCC 25923 assessed as reduction in bacterial growth measured after 20 hrs by CLSI protocol based broth microdilution method; format: functional, organism-based
Escherichia coli [3] = experiment: Antibacterial activity against Escherichia coli MG1655 assessed as bacterial growth inhibition measured after 20 hrs by CLSI protocol based broth microdilution method; format: functional
Staphylococcus aureus [4] = experiment: Antibacterial activity against Staphylococcus aureus ATCC 25923 assessed as bacterial growth inhibition measured after 20 hrs by CLSI protocol based broth microdilution method; format: functional
3T3-L1 = experiment: Cytotoxicity against mouse 3T3-L1 cells assessed as reduction in cell viability at 50 ug/ml measured after 24 to 72 hrs y MTT assay; format: cell-based; conditions: time 24-72 hrs, dose 50 µg/ml
Bacillus subtilis [5] = experiment: Induction of morphological changes in Bacillus subtilis 168 assessed as immediate cell lysis at >8 ug/ml incubated for 120 mins by phase-contrast microscopic analysis; format: functional, organism-based; conditions: dose > 8.0 µg/ml
Bacillus subtilis [6] = experiment: Induction of morphological changes in Bacillus subtilis 168 assessed as cell lysis at 2.5 to 3.5 times MIC incubated for 1 hr by phase-contrast microscopic analysis; format: functional, organism-based
Bacillus subtilis [7] = experiment: Induction of morphological changes in Bacillus subtilis 168 assessed as cell lysis at 2.5 to 3.5 times MIC incubated for 2 hrs by phase-contrast microscopic analysis; format: functional, organism-based
Bacillus subtilis [8] = experiment: Induction of morphological changes Bacillus subtilis 168 assessed as morphological changes by measuring cell lysis with cell debris and ghost cells at 3 times MIC incubated for 3 hr by phase-contrast microscopic analysis; format: functional, organism-based
Bacillus subtilis [9] = experiment: Induction of morphological changes in Bacillus subtilis 168 assessed as bulbous distortion at 2.5 to 2.75 times MIC incubated for 3 hr by phase-contrast microscopic analysis; format: functional, organism-based
Bacillus subtilis [10] = experiment: Antibacterial activity against Bacillus subtilis 168 assessed as bacterial growth inhibition measured after 20 hrs by CLSI protocol based broth microdilution method; format: functional
Bacillus subtilis [11] = experiment: Antibacterial activity against Bacillus subtilis 168 assessed as diameter of zone of inhibition by agar plate diffusion method; format: functional
Escherichia coli [12] = experiment: Antibacterial activity against Escherichia coli assessed as zone of inhibition by plate agar diffusion method; format: functional
[13] = Cytotoxicity against mouse 3T3-L1 cells assessed as cell viability at 25 ug/ml measured up to 72 hrs y MTT assay relative to control; format: cell-based; conditions: at 25 µg/mL, read-out: Activity

Row | MIC95 (Escherichia coli [3]) [µg/mL] | MIC95 (Staphylococcus aureus [4]) [µg/mL] | Structure (SMILES) | also measured
1 | > 128 | 8 (≈ 23.4 µM) | COc1cc(-c2cc(-c3ccc(-c4ccccc4)cc3)n[nH]2)ccc1O | Activity (Bacillus subtilis [1]): Active; Activity (Staphylococcus aureus [2]): Active; Activity (3T3-L1): Non-Toxic; Activity (Bacillus subtilis [5]): inactive; Activity (Bacillus subtilis [6]): Active; Activity (Bacillus subtilis [7]): Active; Activity (Bacillus subtilis [8]): Active; Activity (Bacillus subtilis [9]): Active; MIC (Bacillus subtilis [10]): 8 µg/mL (≈ 23.4 µM)
2 | > 128 | > 128 | COc1ccc(OC)c(-c2cc(-c3ccc(-c4ccc(C(C)(C)C)cc4)cc3)n[nH]2)c1 | –
3 | > 128 | > 128 | COc1ccc(-c2cc(-c3ccc(-c4ccccc4)cc3)n[nH]2)cc1OC | diameter of the inhibition zone (DIZ) (Bacillus subtilis [11]): 13 mm; diameter of the inhibition zone (DIZ) (Escherichia coli [12]): 20 mm
4 | > 128 | > 128 | COc1ccc(-c2cc(-c3ccc(-c4ccccc4)cc3)n[nH]2)cc1 | –
5 | > 128 | > 128 | COc1ccc(OC)c(-c2cc(-c3ccc(-c4ccc(Cl)cc4)cc3)n[nH]2)c1 | –
6 | > 128 | > 128 | COc1ccc(OC)c(-c2cc(-c3ccc(-c4ccccc4)cc3)n[nH]2)c1 | –

The next lines start with the compound.

Row | Structure (SMILES) | MIC95 (Escherichia coli [3]) [µg/mL] | MIC95 (Staphylococcus aureus [4]) [µg/mL] | also measured
7 | CC(C)(C)c1ccc(-c2ccc(-c3cc(-c4ccc(OCc5ccccc5)cc4)[nH]n3)cc2)cc1 | > 128 | > 128 | –
8 | COc1ccc(-c2cc(-c3ccc(-c4ccc(C(C)(C)C)cc4)cc3)n[nH]2)cc1OC | > 128 | > 128 | –
9 | COc1ccc(-c2cc(-c3ccc(-c4ccc(Cl)cc4)cc3)n[nH]2)cc1OC | > 128 | > 128 | –
10 | Clc1ccc(-c2ccc(-c3cc(-c4ccc(OCc5ccccc5)cc4)[nH]n3)cc2)cc1 | > 128 | > 128 | –
11 | COc1ccc(-c2cc(-c3ccc(-c4ccc(Cl)cc4)cc3)n[nH]2)cc1 | > 128 | > 128 | –
12 | COc1cc(-c2cc(-c3ccc(C(C)(C)C)cc3)n[nH]2)ccc1O | > 128 | 32 (≈ 99.3 µM) | Activity (Bacillus subtilis [1]): Active; Activity (Staphylococcus aureus [2]): Active; viability at 72 h, 25 ug/ml [13]: 85%; MIC (Bacillus subtilis [10]): 16 µg/mL (≈ 49.6 µM)
13 | Clc1ccc(-c2ccc(-c3cc(-c4cccc(OCc5ccccc5)c4)[nH]n3)cc2)cc1 | > 128 | > 128 | –
14 | COc1ccc(-c2cc(-c3ccc(-c4ccc(C(C)(C)C)cc4)cc3)n[nH]2)cc1 | > 128 | > 128 | –
15 | COc1ccc(-c2cc(-c3ccc(-c4ccc(Cl)cc4)cc3)n[nH]2)c(OC)c1 | > 128 | > 128 | –
16 | Oc1cccc(-c2cc(-c3ccc(-c4ccccc4)cc3)n[nH]2)c1 | > 128 | > 128 | –
17 | COc1cc(-c2cc(-c3ccc(-c4ccc(Cl)cc4)cc3)n[nH]2)ccc1OCc1ccccc1 | > 128 | > 128 | –
